# Measured values from patent publication US20240269120A1, “Method for Treating an Autoimmune and Inflammatory Disease” (Cellestia Biotech AG, priority 2021, published 2024).
# Tests used:
# IL-12a mRNA = test: Quantitative RT-PCR of splenocyte mRNA after in vivo dosing: IL-12a; parameters: species or system mouse; conditions: in vivo treated mice vs vehicle; p<0.01; FIG. 4
# Protocol: FIG. 4: In vivo 6-(4-tert-butylphenoxy)pyridin-3-amine dosing leads to a downregulation of pro-inflammatory cytokine IL-12a mRNA in mouse spleen. […] Each bar represents the mean±SD (N=3 replicates). (**) p<0.01
# (§1) In vivo treatment of mice and pharmacodynamic response: Mice experiments were performed in compliance with authorization to perform animal experiments (VD3323). Briefly, 6-8 weeks old wild type C57Bl6 mice were subcutaneously or intraperitoneally dosed with vehicle or compounds for different durations. Mice were sacrificed, spleens were harvested 24 hours post-last dosing. Splenocytes were analyzed for cell surface and intracellular markers expression using flow cytometry. RNA expression analyses were performed using quantitative real time PCR.
# Treg cells [1] = test: Treg expansion in activated mouse splenocytes in vitro; assay type: cell-based; conditions: mouse splenocytes stimulated with anti-CD3 and anti-CD28 for 96 hours; FIG. 1
# Protocol: Mouse splenocytes were harvested and single cell suspension stimulated in vitro with anti-CD3 and anti-CD28 antibodies for 96 hours. Treatment with 6-(4-tert-butylphenoxy)pyridin-3-amine, during the same interval of time, caused an expansion of immunosuppressive regulatory T cells (Tregs). Each bar represents the mean±SD (N=3 replicates).
# (§2) Human PBMCs and mouse splenocyte in vitro stimulation and treatment: Human peripheral blood mononuclear cells (PBMCs) and mouse splenocytes from donors were stimulated in vitro with anti-CD3 and anti-CD28 antibodies. The stimulated cells were simultaneously treated with compounds for 96 hours. The T cells were profiled for different cell surface and intracellular markers and proliferation by flow cytometry.
# (§3) Flow cytometry analysis: Flow cytometry analysis was performed to quantify cell surface and intracellular markers expression and measure cell division index.
# Viability staining: Cells were transferred into a 96 well conical bottom plate and washed with serum free PBS1×. Cells were incubated with Zombie NIR (Biolegend #423105)+FC block ([…]) for 20 minutes at 4° C. […]
# (§4) FOXP3 nuclear staining: Cells were fixed and permeabilized with Foxp3 Transcription Factor Staining Buffer Set (ThermoFisher #00-5523) for 20 minutes at room temperature. […] Results are finally analysed with the software FlowJo v.10.7.1.
# activated CD4 T cells = test: Cell proliferation assay (Cell trace violet), activated CD4 T cells; assay type: cell-based; conditions: control 0%
# Protocol: Following PBMC injections, mice were treated with vehicle or 6-(4-tert-butylphenoxy)pyridin-3-amine or Ruxolitinib starting at day 0. Mice were monitored from 60-85 days for symptoms of GvHD and scored according to a standard clinical scoring system for GvHD (Naserian et al., 2018) (see table 1) and a cumulative clinical score was obtained by addition of clinical score for individual parameters. A maximum score of 6 is measured when reaching endpoint. Cell proliferation assay: The effect of compounds on T cell proliferation was quantified using Cell trace violet (CTV). PBMCs/splenocytes were incubated with CTV for 20 minutes at 37° C. Cells were washed twice with RPMI complete medium. CTV labelled cells were stimulated with anti-CD3 and anti-CD28 antibodies and treated with control or compounds and cultured at 37° C. for 96 hours. The cell division index was measured by flow cytometry.
# as §3
# IFNG [2] = test: Cytokine profiling in human patient plasma (MSD): IFNG; assay type: in vivo; conditions: human patients, day 29 on treatment vs baseline pre-treatment
# Protocol: Cytokine profiling in human plasma samples: Plasma samples from patients treated with 6-(4-tert-butylphenoxy)pyridin-3-amine were collected and stored at −80° C. until analysed. Cytokine and chemokine profiling was performed using MesoScale Discovery (MSD) platform and three assay panels: 1) Pro-inflammatory panel human, 2) Human IL-6 assay S-Plex, 3) Human IL-10 assay S-Plex.
# IL-10 mRNA = test: Quantitative RT-PCR of splenocyte mRNA after in vivo dosing: IL-10; parameters: species or system mouse; conditions: in vivo treated mice vs vehicle; p<0.05; FIG. 3
# Protocol: FIG. 3: In vivo 6-(4-tert-butylphenoxy)pyridin-3-amine dosing leads to an upregulation of anti-inflammatory cytokine IL-10 mRNA in mouse spleen. […] Each bar represents the mean±SD (N=3 replicates). (*) p<0.05
# as §1
# Treg cells [3] = test: Treg expansion in activated human PBMC cultures (anti-CD3/anti-CD28, flow cytometry); assay type: cell-based; conditions: anti-CD3 and anti-CD28, 96 hours, control 0%
# Protocol: as §2, §3
# Viability staining: Cells were transferred into a 96 well conical bottom plate and washed with serum free PBS1×. Cells were incubated with Zombie NIR (Biolegend #423105)+FC block ([…]) for 20 minutes at 4° C. Cells were washed with staining medium (SM) (1×HBSS, 2.5 mM EDTA, 2% NBS
# Cell surface marker staining: Cells were stained with antibodies against cell surface markers (CD3, CD4, CD8, CD25, Biolegend or ThermoFisher) for 20 minutes at 4° C. Cells were washed with SM before continuing with nuclear staining.
# as §4
# [4] = test system: irradiated Balb/c mice transplanted with TCD-BM + splenocytes from C57Bl6 mice (GvHD); test: Allogeneic bone marrow transplant GvHD model; assay type: in vivo, mouse
# Protocol: (§5) Allogeneic Bone marrow transplant: Recipient Balb/c mice were irradiated twice 3.75Gy (T=0 and T=4 h) in an X-ray source irradiator before transplantation at T=8 h. Treatment with antibiotics (Nopil) and analgesic (Dafalgan) was supplemented to drinking water 4 days before injection. Irradiated recipient Balb/c mice were transplanted with 5 million T cell depleted bone marrow+1 million splenocytes. Allogeneic recipient animals were treated with vehicle or 6-(4-tert-butylphenoxy)pyridin-3-amine subcutaneously at 20 mg/kg for two days immediately after allo-BM transplant, given a 10 days treatment holiday to recover body weight loss due to whole body irradiation and then treatment continued at 20 mg/kg. […] Animals were monitored for symptoms of GvHD development (severe body weight loss, alopecia and diarrhea.
# Graft vs host disease (GvHD) is an example of alloimmune disease that develops following allo-hematopoetic stem cell transplant (allo-HSCT) in humans. The activity of 6-(4-tert-butylphenoxy)pyridin-3-amine and a calcineurin inhibitor Cyclosprin A was investigated in a mouse model of GvHD following allo-bone marrow transplant. In this model, T cell depleted bone marrow cells (TCD-BM)+splenocytes from C57Bl6 mice were transplanted into irradiated Balb/c mice.
# IFNG [5] = test: Cytokine analysis in allogeneic bone marrow transplant (LEGENDplex): IFNG; assay type: in vivo, mouse; conditions: allo-BM+splenocyte transplanted mice, day 36, vs vehicle; FIG. 6
# Protocol: as §5
# Cytokine analysis in allogeneic Bone marrow transplant: The recipient animals were bled on day 36 and blood plasma was extracted to determine inflammatory cytokine concentration (IFNγ, IL-6, IL-17a) by LEGENDplex™ multiplexed assay.
# [6] = test system: Treg cells (CD4+CD25highFOXP3+); test: In vivo dosing of C57BL6 mice, Treg cells in spleen; parameters: species or system mouse; conditions: C57BL6 wild type mice, 60 mg/kg QD
# Protocol: C57BL6 wild type mice were treated with 6-(4-tert-butylphenoxy)pyridin-3-amine at 60 mg/kg dose (QD). […] (*) p<0.05. Each bar represents the mean±SEM (N=3 replicates).
# as §1, §3
structure (smiles),measurement,setting,value
CC(C)(C)c1ccc(Oc2ccc(N)cn2)cc1 [6-(4-tert-butylphenoxy)pyridin-3-amine],IL-12a transcript in splenocytes,IL-12a mRNA,downregulation
same,expansion of Treg cells,Treg cells [1],expansion of Treg cells
same,Percentage inhibition of CD4 T cells (proliferation),activated CD4 T cells,81%
same,Percentage downregulation of IFNG in blood plasma,IFNG [2],90% (day 29 on treatment)
same,IL-10 transcript in splenocytes,IL-10 mRNA,upregulation
same,expansion of Treg cells,Treg cells [3],112%
same,prevention of GvHD development (in words),"[4]; allo-bone marrow transplant, compared with vehicle",prevents development of GvHD
same,treated animals that developed GvHD,"[4]; allo-bone marrow transplant, 60% of vehicle treated animals died due to GvHD, FIG. 5",20%
same,animals remained GvHD free,"[4]; allogeneic bone marrow+splenocyte transplantation, vehicle 40%, FIG. 5",80%
same,IFNG in blood plasma,IFNG [5],downregulation
same,Treg cells (CD4+CD25highFOXP3+) number,"[6]; p<0.05, FIG. 2a",significantly increased
same,Treg cells (CD4+CD25highFOXP3+) frequency,"[6]; p<0.05, FIG. 2b",significantly increased
